Key:
Format in all cases: in vivo
[1] = system: Alternaria solani; assay: Alternaria test (tomato)/protective; settings: protective, application rate 750 g/ha, evaluation 7 days after inoculation
[2] = system: Erysiphe graminis f. sp. hordei; assay: Erysiphe test (barley)/protective; settings: protective, application rate 750 g/ha, evaluation 7 days after inoculation
[3] = system: Botrytis cinerea; assay: Botrytis test (bean)/protective; settings: protective, application rate 500 g/ha, evaluation 2 days after inoculation
Procedure: Botrytis Test (Bean)/Protective • Solvent: 49 parts by weight of N,N-dimethylformamide • Emulsifier: 1 part by weight of alkylaryl polyglycol ether To produce a suitable preparation of active compound, 1 part by weight of active compound is mixed with the stated amounts of solvent and emulsifier, and the concentrate is diluted with water to the desired concentration. To test for protective activity, young plants are sprayed with the preparation of active compound at the stated application rate. After the spray coating has dried on, 2 small pieces of agar colonized by Botrytis cinerea are placed onto each leaf. The inoculated plants are placed in a dark chamber at about 20° C. and 100% relative atmospheric humidity. 2 days after the inoculation, the size of the infected areas on the leaves is evaluated. 0% means an efficacy which corresponds to that of the control, whereas an efficacy of 100% means that no infection is observed.

Structure (SMILES) | Efficacy in % [1] | Efficacy in % [2] | other results
CC(C)CC(C)c1ccccc1NC(=O)c1ccccc1I (centres unmarked) [drawing 17] | 100% | – | –
CC(C)CC(C)c1ccccc1NC(=O)c1ccccc1I (centres unmarked) [drawing 19] | – | 95% | –
CC(C)CC(C)c1ccccc1NC(=O)c1ccccc1C(F)(F)F (centres unmarked) [drawing 18] | – | 95% | –
CC(C)CC(C)c1ccccc1NC(=O)c1ccccc1C(F)(F)F (centres unmarked) [drawing 16] | 100% | – | –
CC(C)CC(C)c1ccccc1NC(=O)c1ccccc1I (centres unmarked) [drawing 15] | – | – | Efficacy in % [3]: 93%

Source: patent US7314958B2, “Phenylbenzamides” (Bayer CropScience AG, priority 2002, dated 2008)
